Test results taken from patent US20240041796A1, “ANTI-INFLAMMATORY COMPOSITION COMPRISING N-BENZYL-N-METHYLDECAN-1-AMINE OR A DERIVATIVE THEREOF AS AN ACTIVE INGREDIENT” (PUSAN NATIONAL UNIVERSITY INDUSTRY-UNIVERSITY COOPERATION …, priority 2022, published 2024).

Experiments:
[1] = tested on: THP-1 cell line; assay: LPS-induced signaling pathway in THP-1 cells pretreated with FMJ-G0 derivatives; assay type: cell-based, human; conditions: pretreated 4 μM 1 hour, LPS 1 μg/mL 4 hours; FIG. 8B
Procedure: Thereafter, the THP-1 cell line was pretreated with the synthesized FMJ-G0 derivatives FMJ-G1, FMJ-G2, and FMJ-G3 at a concentration of 4 μM for 1 hour. Lipopolysaccharide (1 μg/mL) was added to a culture medium in which the THP-1 cell line was cultured for 4 hours. The same cell line was collected, and a signaling pathway involved in inflammatory cytokine synthesis was identified, and the result is shown in FIG. 8B.

[2] = tested on: Balb/C mice; assay: DNCB-induced atopic dermatitis model, cosmetic cream applied to the skin; assay type: in vivo, mouse; conditions: for DNCB-induced atopic dermatitis (level of dermatitis): cosmetic cream (0.3% active; Lidomax ointment 0.15%) applied to the back for 2 weeks, FIG. 9A, 9C
Procedure: Wed added 0.3 g of olive wax to 2 mL of soybean oil (Sigma-Aldrich) in a glass tube (15 ml), and put the tube in a 75° C. water-bath, and performed a double boiling thereon to melt the olive wax for 30 minutes while vortexing the tube at 10 minute interval. Under the same conditions, 7.7 ml of purified water was put into a 75° C. water-bath and heated the same for 30 minutes. Next, 7.5 ml of purified water was poured into the tube containing the olive wax and the mixture was stirred well via vortexing. Then, […] (0.3%) of each of BMDA and derivatives thereof (FMJ-G0, FMJ-G4, FMJ-G1, FMJ-G2, FMJ-G3) as synthesized in Examples 1 and 3 were added to the mixture, followed by stirring. The reaction product was cooled in ice and prepared in the form of a cosmetic cream.
In order to induce atopic dermatitis using 5-week-old Balb/C mice, hair on the back of the mouse was removed therefrom, and after one day, a 0.5% solution in which DNCB (2,4-dinitrochlorobenzne) is mixed with acetone and olive oil (3:1) was prepared, and then was applied thereon for 3 consecutive days by 150 μL per each day. Thereafter, the solution of the same concentration was applied to the back area from which the hair was removed twice a week and this process continued for 2 weeks. Further, to alleviate atopic dermatitis induced in this way, the cosmetic cream containing each of BMDA (FMJ-G0) and the derivatives thereof (FMJ-G4, FMJ-G1, FMJ-G2, FMJ-G3) of the present disclosure as prepared above was applied to the back of rats with the induced atopic dermatitis for 2 weeks, and then, changes in skin inflammation were examined.
The experimental results of FIG. 10A and FIG. 10B was obtained as follows as in FIG. 9. The skin tissue was removed from the back of the mouse in the group, and was placed fixedly in 10% formaldehyde for 48 hours, and paraffin pieces were made, and the pieces were thinly sliced so as to have a thickness of 4 μm and was subjected to hematoxylin-esoin staining. Then, whether the damaged skin tissue was recovered by each of BMDA (FMJ-G0) and DMMA (FMJ-G4) was examined using an optical microscope equipped with a Leica application (Leica Microsystems, Switzerland).
To this end, the atopic dermatitis is induced in FIG. 9, and on 2 weeks since the treatment with BMDA (FMJ-G0) and DMMA (FMJ-G4), blood (500 ul) is collected from the hepatic veins of the rats of the above groups, and left at room temperature for 30 minutes. Then, serum was separated and prepared via centrifugation, and then, the IgE concentration related to the allergic reaction was measured through ELISA using the serum thus prepared.
Anti-mouse IgE (Pharmingen, CA, USA) was diluted with PBS (pH 7.4) on a 96-well plate, 100 μL thereof was coated on each 96-well plate, and then left at 4° C. for 12 hours. The plate was washed with PBS containing 0.05% tween. Blocking was performed thereon for 1 hour with PBS containing 1% BSA, 5% sucrose, and 0.05% NaN3. Washing was performed thereon several times using washing buffer. Recombinant IgE and serum were added thereto, and reaction occurred at 37° C. for 2 hours, and each well was washed again, and biotinylated IgE (Pharmingen, CA, USA) was added thereto. Reaction occurred for 2 hours. After washing the well, avidin peroxidase was added thereto and reaction occurred at 37° C. for 30 minutes. Then, the well was washed and then, ABTS solution as a substrate was added thereto. Absorbance was measured at 405 nm using ELISA reader (Epoch2, Biotek, VT, USA).
FIG. 11 show data obtained as follows. The atopic dermatitis was induced as described in FIG. 9, and on 2 weeks since the treatment with BMDA or DMMA (FMJ-G0/G4), a portion of the skin tissue of the rats in the groups were put in Trisol solution and the tissue was crushed in a sonicator. […]

[3] = cosmetic cream (Lidomax ointment 0.15%) applied for 2 weeks, FIG. 9B, 9D

| SMILES | phosphorylation of JNK resulting from LPS [1] | phosphorylation of MK2 resulting from LPS [1] | phosphorylation of p38 MAP kinase resulting from LPS [1] | DNCB-induced atopic dermatitis (level of dermatitis) [2] | size of the (inguinal) lymph node [2, 3] | size of the spleen [2, 3] |
| --- | --- | --- | --- | --- | --- | --- |
| CCCCCCCCCCN(CC)Cc1ccccc1 [FMJ-G1, Benzyl-decyl-ethyl-amine] | inhibited | inhibited | inhibited | significantly alleviates | – | – |
| CCCCCCCCCCCCN(C)Cc1ccccc1 [FMJ-G2, benzyl-dodecyl-methyl-amine] | inhibited | inhibited | inhibited | did not prevent | increased | increased |
